Values after ≈ are worked out from the molar mass of the structure shown. Active and inactive are the calls of the source. No cut-off for these calls is given here.
Assays:
Staphylococcus aureus [1] = experiment: Drug resistance, ratio of MIC for Staphylococcus aureus ATCC43300 after 18 passages exposure to MIC for Staphylococcus aureus ATCC43300 after first exposure; format: functional
Staphylococcus aureus [2] = experiment: Antibacterial activity against Staphylococcus aureus ATCC43300 measured after 20 passages; format: functional, organism-based
Staphylococcus aureus [3] = experiment: Drug resistance, ratio of MIC for Staphylococcus aureus ATCC43300 after 20 passages exposure to MIC for Staphylococcus aureus ATCC43300 after first exposure; format: functional
Cell membrane [4] = experiment: Induction of cell membrane disruption in Staphylococcus aureus ATCC43300 assessed as fold increase in DNA leakage at 16 ug/ml; format: subcellular; settings: dose 16.0 µg/ml
[5] = system: Staphylococcus epidermidis; experiment: Antibacterial activity against vancomycin-susceptible Staphylococcus epidermidis ATCC12228 assessed as reduction in bacterial growth by broth microdilution assay; format: functional
Staphylococcus aureus [6] = experiment: Bactericidal activity against Staphylococcus aureus ATCC43300 assessed as reduction in bacterial count at 16 ug/ml measured within 4 hrs by time kill assay relative to control; format: functional; design: scale not given: the % may be the effect or the level left; settings: dose 16 µg/ml
Cell membrane [7] = experiment: Induction of cell membrane permeabilization in Staphylococcus aureus ATCC43300 assessed as fold increase in fluorescence intensity at 16 ug/ml by propidium iodide dye-based fluorescence assay; format: subcellular; settings: dose 16.0 µg/ml
Staphylococcus aureus [8] = experiment: Bactericidal activity against Staphylococcus aureus ATCC43300 assessed as log reduction in CFU at 16 ug/ml by time kill assay; format: functional; settings: dose 16 µg/ml
Cell membrane [9] = experiment: Disruption of cell membrane integrity in Staphylococcus aureus ATCC43300 assessed as blue fluorescence by DAPI staining based fluorescence assay; format: subcellular
Cell membrane [10] = experiment: Induction of cell membrane permeabilization in Staphylococcus aureus ATCC43300 assessed as increase in fluorescence intensity by propidium iodide dye-based fluorescence assay; format: subcellular; settings: dose 2-16 µg/ml
Staphylococcus aureus [11] = experiment: Bactericidal activity against Staphylococcus aureus ATCC43300 measured upto 12 hrs by time kill assay; format: functional, organism-based; settings: dose 2-16 µg/ml
Acinetobacter baumannii = experiment: Antibacterial activity against Acinetobacter baumannii ATCC19606 assessed as reduction in bacterial growth by broth microdilution assay; format: functional
Staphylococcus aureus [12] = experiment: Antibacterial activity against Staphylococcus aureus ATCC25923 assessed as reduction in bacterial growth by broth microdilution assay; format: functional
[13] = Hemolytic activity in RBC (unknown origin) assessed as hemolysis; format: toxicity, cell-based
Pseudomonas aeruginosa = experiment: Antibacterial activity against penicillin-susceptible Pseudomonas aeruginosa ATCC27853 assessed as reduction in bacterial growth by broth microdilution assay; format: functional
Klebsiella pneumoniae = experiment: Antibacterial activity against erythromycin-susceptible Klebsiella pneumoniae ATCC10031 assessed as reduction in bacterial growth by broth microdilution assay; format: functional
Staphylococcus aureus [14] = experiment: Bactericidal activity against Staphylococcus aureus ATCC43300 assessed as eradication of bacterial cell at 16 ug/ml measured within 8 hrs by time kill assay relative to control; format: functional; settings: dose 16 µg/ml
Cell membrane [15] = experiment: Disruption of cell membrane integrity in Staphylococcus aureus ATCC43300 assessed as red fluorescence by DAPI staining based fluorescence assay; format: subcellular
Staphylococcus aureus [16] = experiment: Antibacterial activity against Staphylococcus aureus ATCC31007 assessed as reduction in bacterial growth by broth microdilution assay; format: functional
Bacillus subtilis = experiment: Antibacterial activity against […] Bacillus subtilis ATCC9372 assessed as reduction in bacterial growth by broth microdilution assay; format: functional
Cell membrane [17] = experiment: Induction of cytoplasmic membrane depolarization in Staphylococcus aureus ATCC43300 assessed as fold increase in fluorescence signal at 16 ug/ml measured at 20 mins DiSC3(5) dye-based fluorescence assay; format: subcellular; settings: dose 16.0 µg/ml
Staphylococcus aureus [18] = experiment: Antibacterial activity against […] Staphylococcus aureus ATCC43300 assessed as reduction in bacterial growth by broth microdilution assay; format: functional
Cell membrane [19] = experiment: Induction of cytoplasmic membrane depolarization in Staphylococcus aureus ATCC43300 assessed as fold increase in fluorescence signal measured upto 20 mins DiSC3(5) dye-based fluorescence assay; format: subcellular; settings: dose 2-16 µg/ml
Cell membrane [20] = experiment: Induction of cell membrane disruption in Staphylococcus aureus ATCC43300 assessed as fold increase in protein leakage at 16 ug/ml; format: subcellular; settings: dose 16.0 µg/ml
Cell membrane [21] = experiment: Induction of cell membrane disruption in Staphylococcus aureus ATCC43300 assessed as increase in protein leakage; format: subcellular; settings: dose 2-16 µg/ml
Escherichia coli = experiment: Antibacterial activity against Escherichia coli ATCC25922 assessed as reduction in bacterial growth by broth microdilution assay; format: functional
Cell membrane [22] = experiment: Induction of cell membrane disruption in Staphylococcus aureus ATCC43300 assessed as increase in DNA leakage; format: subcellular; settings: dose 2-16 µg/ml
Staphylococcus aureus [23] = experiment: Bactericidal activity against Staphylococcus aureus ATCC43300 at 2 to 16 ug/ml by time kill assay; format: functional, organism-based; settings: dose 2-16 µg/ml, time <= 12.0 hrs
Enterococcus faecalis = experiment: Antibacterial activity against penicillin-susceptible Enterococcus faecalis ATCC29212 assessed as reduction in bacterial growth by broth microdilution assay; format: functional

In the case of `CCn1cc(C(=O)O)c(=O)c2cc(F)c(N3CCNCC3)cc21` [NORFLOXACIN], the “fold change (FC)” value (Staphylococcus aureus [1]) is reported as 256.
With `CC(=O)c1c(OCC(=O)NCCN(C)C)c2c(c3c1OC(C)(CCC=C(C)C)C=C3)OC(C)(CCC=C(C)C)C=C2` (stereo not given) the Activity (Staphylococcus aureus [2]) was “inactive”, the “fold change (FC)” value (Staphylococcus aureus [3]) was 4 and the fold change (FC) (Cell membrane [4]) was 6.7. It also gave an MIC [5] of 1 µg/mL (≈ 1.77 µM), an Activity (Staphylococcus aureus [6]) of 99.9% and a fold change (FC) (Cell membrane [7]) of 2.3. For the same molecule, the “log(activity)” value (Staphylococcus aureus [8]) was 8.78, the Activity (Cell membrane [9]) was “Active” and the Activity (Cell membrane [10]) was “Dose-dependent-effect”. The Activity (Staphylococcus aureus [11]) was “Dose-dependent-effect”, the MIC (Acinetobacter baumannii) was 128 µg/mL (≈ 227 µM) and the MIC (Staphylococcus aureus [12]) was 4 µg/mL (≈ 7.08 µM). The HC90 ([13]; rbc) was 205.8 µg/mL, the HC50 ([13]; red blood cells) was 112 µg/mL and the MIC (Pseudomonas aeruginosa) was greater than 128 µg/mL. The MIC (Klebsiella pneumoniae) was greater than 128 µg/mL, the Activity (Staphylococcus aureus [14]) was 100% and the Activity (Cell membrane [15]) was “Active”. The MIC (Staphylococcus aureus [16]) was 2 µg/mL (≈ 3.54 µM), the MIC (Bacillus subtilis) was 2 µg/mL (≈ 3.54 µM) and the fold change (FC) (Cell membrane [17]) was 4.7. For the same molecule, the MIC (Staphylococcus aureus [18]) was 2 µg/mL (≈ 3.54 µM), the Activity (Cell membrane [19]) was “Dose-dependent-effect” and the fold change (FC) (Cell membrane [20]) was 6.3. The Activity (Cell membrane [21]) was “Dose-dependent-effect”, the MIC (Escherichia coli) was greater than 128 µg/mL and the Activity (Cell membrane [22]) was “Dose-dependent-effect”. For the same molecule, the Activity (Staphylococcus aureus [23]) was “Time-dependent-effect” and the MIC (Enterococcus faecalis) was 1 µg/mL (≈ 1.77 µM).
